The values that follow come from patent publication US10407409B2, “6-(5-hydroxy-1H-pyrazol-1-yl)nicotinamide inhibitors of PHD” (Takeda Pharmaceutical Company Limited, priority 2013, dated 2019).

The target in assay [1] is PHD2 enzyme (residues 181-417) (Homo sapiens (Human), UniProt Q9GZT9). The assay is described as follows: Inhibition of PHD enzyme (LC/MS peptide hydroxylation assay). In kind it is biochemical. The settings on record: PHD2 (residues 181-417) 5 nM, 60 min pre-incubation; -log(IC50), IC50 molar. The essentials:
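PHD2 (5 nM final) preincubated with inhibitor 60 min at RT in 50 mM HEPES, 50 mM KCl, 0.5 mM TCEP, 2 uM FeCl2, 0.1 mg/ml BSA, pH 7.3. Reaction started with biotin-peptide (1 uM), 2-oxoglutarate (2 uM), ascorbate (1 mM), quenched at 60 min; hydroxylated product by LC/MS, reported as pIC50.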

In assay [2] the test system is HIF1a protein in H9c2 rat cardiomyocytes. The assay is described as follows: Cell-based HIF-alpha stabilization assay (inhibition of PHD in cells). The note with it: Rattus norvegicus, H9c2, 24 h, 24 hrs compound incubation, HIF1a protein by ELISA, read-out: Inhibition of PHD in cells (pEC50) (converted). The essentials:
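Rat H9c2 cardiomyocytes, cultured 24 h, were treated 24 h with an 11-point serial dilution of compound. HIF1a in whole-cell lysates was quantified by ELISA as % of the maximal desferrioxamine response. EC50 came from curve fitting; EC50pos is the concentration reaching 50% of the desferrioxamine maximum.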
On the technique in general: ELISA stands for enzyme-linked immunosorbent assay.

Chain of PHD2 enzyme (residues 181-417) (Q9GZT9 181-417): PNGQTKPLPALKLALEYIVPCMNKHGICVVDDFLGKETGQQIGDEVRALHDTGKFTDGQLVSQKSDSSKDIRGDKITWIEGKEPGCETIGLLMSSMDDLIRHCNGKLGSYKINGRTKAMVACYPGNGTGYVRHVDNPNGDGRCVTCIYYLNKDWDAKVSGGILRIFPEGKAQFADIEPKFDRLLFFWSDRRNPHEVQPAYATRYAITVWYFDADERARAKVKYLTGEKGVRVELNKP

For `COCC[C@H](C)NC(=O)c1ccc(-n2ncc(-c3ccc(C#N)cc3)c2O)nc1` [Example 358, (S)-6-(4-(4-cyanophenyl)-5-hydroxy-1H-pyrazol-1-yl)-N-(4-methoxybutan-2-yl)nicotinamide], the “PHD Inhibition (pIC50)” value in assay [1] came to 8.75. Also, in assay [2], the EC50 is 1150 nM.
In the case of `COCC[C@@H](C)NC(=O)c1ccc(-n2ncc(-c3ccc(C#N)cc3C)c2O)nc1` [Example 359, (R)-6-(4-(4-cyano-2-methylphenyl)-5-hydroxy-1H-pyrazol-1-yl)-N-(4-methoxybutan-2-yl)nicotinamide], the “PHD Inhibition (pIC50)” value in assay [1] stood at 8.45. Besides, in assay [2], the EC50 was 537 nM.
On to `COCC[C@H](C)NC(=O)c1ccc(-n2ncc(-c3ccc(C#N)cc3C)c2O)nc1` [Example 360, (S)-6-(4-(4-cyano-2-methylphenyl)-5-hydroxy-1H-pyrazol-1-yl)-N-(4-methoxybutan-2-yl)nicotinamide], for which, in assay [1], the “PHD Inhibition (pIC50)” value was 8.60. The EC50 in assay [2] is 407 nM.
For `Cc1cc(C#N)ccc1-c1cnn(-c2ccc(C(=O)N(C)CC3CCCN(C)C3)cn2)c1O` (stereo not shown) [Example 361, 6-(4-(4-cyano-2-methylphenyl)-5-hydroxy-1H-pyrazol-1-yl)-N-methyl-N-((1-methylpiperidin-3-yl)methyl)nicotinamide], in that order: 7.76 and 457 nM.
As to `Cc1cc(C#N)ccc1-c1cnn(-c2ccc(C(=O)N(C)CC3CCN(C(C)C)C3)cn2)c1O` (stereo not shown) [Example 362, 6-(4-(4-cyano-2-methylphenyl)-5-hydroxy-1H-pyrazol-1-yl)-N-((1-isopropylpyrrolidin-3-yl)methyl)-N-methylnicotinamide], the “PHD Inhibition (pIC50)” value in assay [1] came out at 7.80. In addition, in assay [2], the EC50 is 525 nM.
Turning to `CCN1CCCC1CN(C)C(=O)c1ccc(-n2ncc(-c3ccc(C#N)cc3)c2O)nc1` (stereo not shown) [Example 363, 6-(4-(4-cyanophenyl)-5-hydroxy-1H-pyrazol-1-yl)-N-((1-ethylpyrrolidin-2-yl)methyl)-N-methylnicotinamide], in assay [1], the “PHD Inhibition (pIC50)” value was 7.28. Moreover, the EC50 in assay [2] was 2090 nM.
For `N#Cc1ccc(-c2cnn(-c3ccc(C(=O)N4CCC[C@@H]4CN4CCCC4)cn3)c2O)cc1` [Example 364, (R)-4-(5-hydroxy-1-(5-(2-(pyrrolidin-1-ylmethyl)pyrrolidine-1-carbonyl)pyridin-2-yl)-1H-pyrazol-4-yl)benzonitrile], in that order: 6.73 and 7760 nM.
Regarding `Cc1cc(C#N)ccc1-c1cnn(-c2ccc(C(=O)N3CCC[C@@H]3CN3CCCC3)cn2)c1O` [Example 365, (R)-4-(5-hydroxy-1-(5-(2-(pyrrolidin-1-ylmethyl)pyrrolidine-1-carbonyl)pyridin-2-yl)-1H-pyrazol-4-yl)-3-methylbenzonitrile], in assay [1], the “PHD Inhibition (pIC50)” value was found to be 7.80. Moreover, the EC50 in assay [2] is 417 nM.
For `Cc1cc(C#N)ccc1-c1cnn(-c2ccc(C(=O)N(C)C3CCN(C)C3)cn2)c1O` (stereo not shown) [Example 368, 6-(4-(4-cyano-2-methylphenyl)-5-hydroxy-1H-pyrazol-1-yl)-N-methyl-N-(1-methylpyrrolidin-3-yl)nicotinamide], in that order: 7.89 and 575 nM.
For `CCC(CC)N1CCN(C(=O)c2ccc(-n3ncc(-c4ccc(C#N)cc4C)c3O)nc2)CC1` [Example 369, 4-(5-hydroxy-1-(5-(4-(pentan-3-yl)piperazine-1-carbonyl)pyridin-2-yl)-1H-pyrazol-4-yl)-3-methylbenzonitrile], in that order: 7.701 and 1200 nM.
For `CCN1CCN(C(=O)c2ccc(-n3ncc(-c4ccc(C#N)cc4C)c3O)nc2)C[C@@H]1C` [Example 370, (S)-4-(1-(5-(4-ethyl-3-methylpiperazine-1-carbonyl)pyridin-2-yl)-5-hydroxy-1H-pyrazol-4-yl)-3-methylbenzonitrile], in that order: 8.287 and 562 nM.
